In ChEMBL document CHEMBL1144262, “Identification of putative metabolites of docosahexaenoic acid as potent PPARgamma agonists and antidiabetic agents” (Bioorg Med Chem Lett, 2005) one finds Triglyceride level, Glucose level and Activity data, which are given here for one molecule.

Series [1] is described as follows: In vivo triglyceride level was observed in db/db mouse 4 weeks after oral administration (once daily) of 100 mg/kg of compound; (n=6). The series is classed as ADME, organism-based. As to conditions: 672 h. Set-up: dose 100 mg/kg, route oral.
A short description of series [2]: In vivo blood glucose level was observed in db/db mouse 4 weeks after oral administration (once daily) of 100 mg/kg of compound; (n=6). The series is classed as ADME, organism-based. The arrangement: dose 100 mg/kg, route oral. As to conditions: 672 h.
Series [3] is described as follows: In vivo triglyceride level was observed in ZDF rats 2 weeks after oral administration (once daily) of 30 mg/kg of compound; (n=6). As to conditions: rat, 336 h.
Series [4] in a line: In vivo body weight gain was observed in ZDF rats 2 weeks after oral administration (once daily) of 30 mg/kg of compound; (n=6). The following applies: rat, 336 h.
The nature of series [5]: In vivo blood glucose level was observed in ZDF rats 2 weeks after oral administration (once daily) of 30 mg/kg of compound; (n=6). As to conditions: rat, 336 h.
Series [6] in a line: In vivo body weight gain was observed in db/db mouse 4 weeks after oral administration (once daily) of 100 mg/kg of compound; (n=6). Set-up: dose 100 mg/kg, route oral. The series is classed as ADME, organism-based. The following applies: 672 h.

On to `CCc1ccc(CCOc2ccc(CC3SC(=O)NC3=O)cc2)nc1` (stereo unspecified) [PIOGLITAZONE], for which the values for the Triglyceride level in series [1] and in series [3] were 73 mg/dL and 109 mg/dL, respectively. Also, the Glucose level turned out to be 432 mg/dL in series [2] and 174 mg/dL in series [5]. Besides, the Activity in series [4] is reported as 96.6 g; in series [6], 15.5 g.
